Measured values taken from PubChem BioAssay (NCI).
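Dose response: 5 concentrations. Exposure: 48 h. Format: 96-well plates. Endpoint: linear interpolation; highest concentration if not reached. GI50 = concentration required for 50% inhibition of growth. TGI denotes the concentration required for complete inhibition of growth.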

Experiments:
Assay in all cases: inhibition of tumour cell growth, NCI panel, 48 h
SF-268 CNS = system: SF-268 CNS
SF-539 CNS = system: SF-539 CNS
ACHN renal = system: ACHN renal
U251 CNS = system: U251 CNS
HL-60(TB) leukemia = system: HL-60(TB) leukemia
786-0 renal = system: 786-0 renal
SW-620 colon = system: SW-620 colon
KM12 colon = system: KM12 colon
SN12C renal = system: SN12C renal
OVCAR-4 ovarian = system: OVCAR-4 ovarian
A549 NSCLC = system: A549 NSCLC
OVCAR-3 ovarian = system: OVCAR-3 ovarian
SF-295 CNS = system: SF-295 CNS
OVCAR-8 ovarian = system: OVCAR-8 ovarian
NCI/ADR-RES ovarian = system: NCI/ADR-RES ovarian
HCT-116 colon = system: HCT-116 colon
UACC-62 melanoma = system: UACC-62 melanoma
COLO 205 colon = system: COLO 205 colon
CCRF-CEM leukemia = system: CCRF-CEM leukemia
NCI-H23 lung = system: NCI-H23 lung
HS 578T breast = system: HS 578T breast
M14 melanoma = system: M14 melanoma
NCI-H226 lung = system: NCI-H226 lung
OVCAR-5 ovarian = system: OVCAR-5 ovarian
MALME-3M melanoma = system: MALME-3M melanoma
SK-MEL-5 melanoma = system: SK-MEL-5 melanoma
BT-549 breast = system: BT-549 breast
MDA-MB-435 = system: MDA-MB-435
MCF7 breast = system: MCF7 breast
HCC-2998 colon = system: HCC-2998 colon
RPMI-8226 leukemia = system: RPMI-8226 leukemia
PC-3 prostate = system: PC-3 prostate
UACC-257 melanoma = system: UACC-257 melanoma
DU-145 prostate = system: DU-145 prostate
MDA-MB-231 breast = system: MDA-MB-231 breast
IGROV1 ovarian = system: IGROV1 ovarian
HOP-62 NSCLC = system: HOP-62 NSCLC
NCI-H522 lung = system: NCI-H522 lung
SK-MEL-2 melanoma = system: SK-MEL-2 melanoma
RXF 393 renal = system: RXF 393 renal
HOP-92 NSCLC = system: HOP-92 NSCLC
A498 renal = system: A498 renal
UO-31 renal = system: UO-31 renal
MOLT-4 leukemia = system: MOLT-4 leukemia
HCT-15 colon = system: HCT-15 colon
HT29 colon = system: HT29 colon
SNB-75 CNS = system: SNB-75 CNS
EKVX NSCLC = system: EKVX NSCLC
NCI-H460 lung = system: NCI-H460 lung
CAKI-1 renal = system: CAKI-1 renal
LOX IMVI melanoma = system: LOX IMVI melanoma
TK-10 renal = system: TK-10 renal
SNB-19 CNS = system: SNB-19 CNS
SK-MEL-28 melanoma = system: SK-MEL-28 melanoma
T-47D breast = system: T-47D breast
SK-OV-3 ovarian = system: SK-OV-3 ovarian
K-562 leukemia = system: K-562 leukemia
SR leukemia = system: SR leukemia

`CN1CCN(Cc2ccc(NC(=O)c3cncc(C#Cc4cnc(N)c5ncccc45)c3)cc2C(F)(F)F)CC1` showed a GI50 (SF-268 CNS) of 0.511 µM, a TGI (SF-268 CNS) of 2.95 µM and a GI50 (SF-539 CNS) of 0.306 µM. For the same molecule, the TGI (SF-539 CNS) was 1.47 µM, the GI50 (ACHN renal) was 0.177 µM and the TGI (ACHN renal) was 1.12 µM. The GI50 (U251 CNS) was 0.509 µM, the TGI (U251 CNS) was 2.18 µM and the GI50 (HL-60(TB) leukemia) was 0.0768 µM. For the same molecule, the TGI (HL-60(TB) leukemia) was 0.602 µM, the GI50 (786-0 renal) was 1.12 µM and the TGI (786-0 renal) was 2.52 µM. It also gave a GI50 (SW-620 colon) of 0.247 µM, a TGI (SW-620 colon) of 1.36 µM and a GI50 (KM12 colon) of less than 0.0146 µM. For the same molecule, the TGI (KM12 colon) was 4.03 µM, the GI50 (SN12C renal) was 0.307 µM and the TGI (SN12C renal) was 1.5 µM. The GI50 (OVCAR-4 ovarian) was 0.1 µM, the TGI (OVCAR-4 ovarian) was 1.29 µM and the GI50 (A549 NSCLC) was 0.436 µM. It also gave a TGI (A549 NSCLC) of 2.52 µM, a GI50 (OVCAR-3 ovarian) of 0.781 µM and a TGI (OVCAR-3 ovarian) of 4.88 µM. For the same molecule, the GI50 (SF-295 CNS) was 0.55 µM, the TGI (SF-295 CNS) was 15.5 µM and the GI50 (OVCAR-8 ovarian) was 0.58 µM. For the same molecule, the TGI (OVCAR-8 ovarian) was 3.51 µM, the GI50 (NCI/ADR-RES ovarian) was 0.685 µM and the TGI (NCI/ADR-RES ovarian) was 3.13 µM. The GI50 (HCT-116 colon) was 0.122 µM, the TGI (HCT-116 colon) was 1.74 µM and the GI50 (UACC-62 melanoma) was 0.341 µM. The TGI (UACC-62 melanoma) was 1.93 µM, the GI50 (COLO 205 colon) was 0.231 µM and the TGI (COLO 205 colon) was 1.66 µM. The GI50 (CCRF-CEM leukemia) was 0.324 µM, the GI50 (NCI-H23 lung) was 0.284 µM and the TGI (NCI-H23 lung) was 6.26 µM. For the same molecule, the GI50 (HS 578T breast) was 0.213 µM, the TGI (HS 578T breast) was 1.68 µM and the GI50 (M14 melanoma) was 0.0698 µM. For the same molecule, the TGI (M14 melanoma) was 1.14 µM, the GI50 (NCI-H226 lung) was 0.267 µM and the TGI (NCI-H226 lung) was 12.5 µM. The GI50 (OVCAR-5 ovarian) was 0.372 µM, the TGI (OVCAR-5 ovarian) was 1.78 µM and the GI50 (MALME-3M melanoma) was 0.131 µM. The TGI (MALME-3M melanoma) was 0.607 µM, the GI50 (SK-MEL-5 melanoma) was 0.432 µM and the TGI (SK-MEL-5 melanoma) was 1.59 µM. It also gave a GI50 (BT-549 breast) of 5.1 µM, a TGI (BT-549 breast) of 23.6 µM and a GI50 (MDA-MB-435) of 0.247 µM. The TGI (MDA-MB-435) was 1.44 µM, the GI50 (MCF7 breast) was 0.723 µM and the TGI (MCF7 breast) was 2.92 µM. The GI50 (HCC-2998 colon) was 0.539 µM, the TGI (HCC-2998 colon) was 16.7 µM and the GI50 (RPMI-8226 leukemia) was 0.401 µM. It also gave a TGI (RPMI-8226 leukemia) of 8.2 µM, a GI50 (PC-3 prostate) of 0.584 µM and a TGI (PC-3 prostate) of 16.9 µM. The GI50 (UACC-257 melanoma) was 0.639 µM, the TGI (UACC-257 melanoma) was 5.6 µM and the GI50 (DU-145 prostate) was 0.37 µM. For the same molecule, the TGI (DU-145 prostate) was 7.33 µM, the GI50 (MDA-MB-231 breast) was 0.147 µM and the TGI (MDA-MB-231 breast) was 0.71 µM. For the same molecule, the GI50 (IGROV1 ovarian) was 0.175 µM, the TGI (IGROV1 ovarian) was 2.58 µM and the GI50 (HOP-62 NSCLC) was 0.448 µM. It also gave a TGI (HOP-62 NSCLC) of 5.78 µM, a GI50 (NCI-H522 lung) of 0.396 µM and a TGI (NCI-H522 lung) of 8.49 µM. It also gave a GI50 (SK-MEL-2 melanoma) of 0.142 µM, a TGI (SK-MEL-2 melanoma) of 0.468 µM and a GI50 (RXF 393 renal) of 0.26 µM. For the same molecule, the TGI (RXF 393 renal) was 1.09 µM, the GI50 (HOP-92 NSCLC) was 0.209 µM and the TGI (HOP-92 NSCLC) was 1.24 µM. For the same molecule, the GI50 (A498 renal) was 0.141 µM, the TGI (A498 renal) was 0.652 µM and the GI50 (UO-31 renal) was 0.242 µM. For the same molecule, the TGI (UO-31 renal) was 1.21 µM, the GI50 (MOLT-4 leukemia) was 0.239 µM and the TGI (MOLT-4 leukemia) was 5.16 µM. The GI50 (HCT-15 colon) was 0.314 µM, the TGI (HCT-15 colon) was 12.7 µM and the GI50 (HT29 colon) was 0.157 µM. For the same molecule, the TGI (HT29 colon) was 1.48 µM, the GI50 (SNB-75 CNS) was 0.391 µM and the TGI (SNB-75 CNS) was 1.48 µM. The GI50 (EKVX NSCLC) was 0.589 µM, the TGI (EKVX NSCLC) was 15.5 µM and the GI50 (NCI-H460 lung) was 0.261 µM. It also gave a TGI (NCI-H460 lung) of 1.59 µM, a GI50 (CAKI-1 renal) of 0.231 µM and a TGI (CAKI-1 renal) of 4.07 µM. It also gave a GI50 (LOX IMVI melanoma) of 0.216 µM, a TGI (LOX IMVI melanoma) of 1.33 µM and a GI50 (TK-10 renal) of 0.686 µM. For the same molecule, the TGI (TK-10 renal) was 3.68 µM, the GI50 (SNB-19 CNS) was 2.11 µM and the TGI (SNB-19 CNS) was 11.8 µM. The GI50 (SK-MEL-28 melanoma) was 0.389 µM, the TGI (SK-MEL-28 melanoma) was 1.59 µM and the GI50 (T-47D breast) was 2.52 µM. It also gave a TGI (T-47D breast) of 39.1 µM, a GI50 (SK-OV-3 ovarian) of 0.391 µM and a TGI (SK-OV-3 ovarian) of 9.07 µM. The TGI (K-562 leukemia) was 1.92 µM.

`C=C1CC[C@](C)(O)[C@@]2(C)CC[C@H]3C(=C(C)C)C(=O)C[C@]3(C)C[C@H]12` gave a TGI (SF-268 CNS) greater than 50 µM, a TGI (SF-539 CNS) greater than 50 µM and a TGI (ACHN renal) greater than 50 µM. The TGI (U251 CNS) was greater than 50 µM, the TGI (HL-60(TB) leukemia) was 18.9 µM and the TGI (786-0 renal) was greater than 50 µM. The TGI (SW-620 colon) was greater than 50 µM, the TGI (KM12 colon) was greater than 50 µM and the TGI (SN12C renal) was greater than 50 µM. For the same molecule, the TGI (OVCAR-4 ovarian) was greater than 50 µM, the TGI (A549 NSCLC) was greater than 50 µM and the TGI (OVCAR-3 ovarian) was greater than 50 µM. For the same molecule, the TGI (SF-295 CNS) was greater than 50 µM, the TGI (OVCAR-8 ovarian) was greater than 50 µM and the TGI (NCI/ADR-RES ovarian) was greater than 50 µM. For the same molecule, the TGI (HCT-116 colon) was greater than 50 µM, the TGI (UACC-62 melanoma) was greater than 50 µM and the TGI (COLO 205 colon) was greater than 50 µM. The TGI (CCRF-CEM leukemia) was 30.9 µM, the TGI (NCI-H23 lung) was greater than 50 µM and the TGI (HS 578T breast) was greater than 50 µM. The TGI (M14 melanoma) was greater than 50 µM, the TGI (NCI-H226 lung) was greater than 50 µM and the TGI (OVCAR-5 ovarian) was greater than 50 µM. For the same molecule, the TGI (SK-MEL-5 melanoma) was greater than 50 µM, the TGI (BT-549 breast) was greater than 50 µM and the TGI (MDA-MB-435) was greater than 50 µM. The TGI (MCF7 breast) was greater than 50 µM, the TGI (HCC-2998 colon) was greater than 50 µM and the TGI (RPMI-8226 leukemia) was greater than 50 µM. For the same molecule, the TGI (PC-3 prostate) was greater than 50 µM, the TGI (UACC-257 melanoma) was greater than 50 µM and the TGI (DU-145 prostate) was greater than 50 µM. For the same molecule, the TGI (MDA-MB-231 breast) was greater than 50 µM, the TGI (IGROV1 ovarian) was greater than 50 µM and the TGI (HOP-62 NSCLC) was greater than 50 µM. The TGI (NCI-H522 lung) was greater than 50 µM, the TGI (SK-MEL-2 melanoma) was greater than 50 µM and the TGI (RXF 393 renal) was greater than 50 µM. It also gave a TGI (HOP-92 NSCLC) greater than 50 µM, a TGI (A498 renal) greater than 50 µM and a TGI (UO-31 renal) greater than 50 µM. The TGI (MOLT-4 leukemia) was 31.6 µM, the TGI (HCT-15 colon) was 46.2 µM and the TGI (SR leukemia) was 41.1 µM. For the same molecule, the TGI (HT29 colon) was greater than 50 µM, the TGI (SNB-75 CNS) was greater than 50 µM and the TGI (EKVX NSCLC) was greater than 50 µM. For the same molecule, the TGI (CAKI-1 renal) was greater than 50 µM, the TGI (LOX IMVI melanoma) was 28.4 µM and the TGI (TK-10 renal) was greater than 50 µM. It also gave a TGI (SNB-19 CNS) greater than 50 µM, a TGI (SK-MEL-28 melanoma) greater than 50 µM and a TGI (T-47D breast) greater than 50 µM. For the same molecule, the TGI (SK-OV-3 ovarian) was greater than 50 µM and the TGI (K-562 leukemia) was 16.8 µM.
